Results from US6962930B1, “Compounds, compositions and method suitable for amelioration of withdrawal syndromes and withdrawal-induced brain damage” (Lohocla Research Corporation, priority 1997, dated 2005).

Tests used:
[1] = tested on: naive Swiss-Webster mice; assay: Elevated plus-maze; type: in vivo; conditions: 100 or 500 mg/kg
Method: The anxiolytic effect of the DCUK-OMe was studied in naive Swiss-Webster mice using an elevated plus-maze apparatus. The plus-shaped maze consists of two arms which are open to the environment (about 30×5 cm) and two arms with side and end walls (about 30×5×15 cm). The arms are connected to a central area (about 5×5 cm) and the plus-maze is elevated from the floor to a height of about 50 cm.
All tests were conducted in a sound-attenuated room under low intensity light (25 Watt). […] A trained observer blind to the treatment conditions scored the number of entries into open arms, the number of entries into closed arms, the number of entries into the central area, the number of rears, and the number of grooming episodes over a 5-minute period. […] The percentage open arm entries was calculated for each animal and used as a measure of the anxiolytic/anxiogenic effects of drug treatment. In addition, the total number of entries made into either open or closed arms was recorded as a measure of drug effects on locomotor activity.
Mice were injected with either vehicle (5% Tween-80, 20% Intralipid) or 100 mg/kg or 500 mg/kg DCUK-OMe suspended in the vehicle about 90 minutes before testing in the plus-maze apparatus. Data were expressed as the percent increase in open arm entries of the drug treated animals compared to vehicle-injected mice. […] Data were analyzed using a one-way ANOVA on ranks. […]

[2] = biological target: T1, polyamine binding site on the NMDA receptor (Rattus norvegicus, UniProt P35439+Q00960); assay: [3H]ifenprodil binding, rat cortical membranes; conditions: 5–200 μM DCUKA tested
T1 construct: from tissue; host or cells: rat cortical membranes

[3] = biological target: α2-noradrenergic receptors; assay: [3H]rauwolscine binding, rat cortex crude membranes; conditions: crude P1 membranes
Method: Rat cortices were homogenized in 20 volumes of ice-cold HEPES-KOH buffer (20 mM, pH 7.4) and twice centrifuged at 50,000 g for 20 min with an intermediate suspension in fresh buffer. The final pellet was stored at −20° C. in 4 volumes of buffer. The binding of [^3H]rauwolscine was performed in a 0.5 ml volume using 250–300 μg tissue and 1 nM [^3H]rauwolscine in 20 mM HEPES-KOH buffer (pH 7.4 at 23° C.). Non-specific binding was defined by use of 100 μM norepinephrine.

[4] = biological target: T2, NR1a/NR2A recombinant receptors (Homo sapiens, UniProt Q05586+Q12879); assay: NMDA-induced currents in oocytes expressing NR1a/NR2A; type: cell-based; conditions: 100 μM NMDA, 1 μM glycine, oocytes; read-out: IC50, inhibition of NMDA-induced currents
T2 construct: expressed in transfected cells; host or cells: Xenopus laevis oocytes, nuclear cDNA injection
Method: (§1) Oocytes were obtained from Xenopus laevis frogs (Nasco or Xenopus I) kept in aquarium tanks at 19–21° C., on a 12 hr light/dark cycle. Mature females were anesthetized by immersion for approximately 30 min in a 0.12% 3-aminobenzoic acid ethyl ester solution, a small incision was made in the abdominal wall and a piece of ovary was removed and placed in Modified Barth's solution (MBS; in mM) containing 88 NaCl, 1 KCl, 10 HEPES, 0.82 MgSO4, 2.4 NaHCO3, 0.91 CaCl2, 0.33 Ca(NO3)2 (pH 7.5). To facilitate manual dissection of oocytes, a section of ovary was transferred from MBS to a hypertonic buffer containing 108 mM NaCl, 2 mM KCl, 2 mM EDTA, 10 mM HEPES, pH 7.5 and theca and epithelial layers of mature oocytes (stages V and VI) were removed with surgical forceps. The follicular layer was removed by a 10 min immersion in 0.5 mg/ml of collagenase in buffer containing 83 mM NaCl, 2 mM KCl, 1 mM MgCl2 and 5 mM HEPES.
(§2) Human NR1a, NR2A and NR2B cDNAs in pCDNA-1Amp were transformed and amplified in XL-1 Blue cells and purified with the MaxPrep Qiagen kit. Oocytes were injected with cDNA into the nucleus in the following concentrations: NR1a/2A cDNAs 0.75 ng/30 nl 1:1 ratio, NR1a/2B cDNAs 3.0 ng/30 nl: 1:1 ratio. Injections were made with micropipettes (10 μm tip diameter) connected to a Drummond micropipettor attached to a micromanipulator. After injection, oocytes were individually placed in wells of 96-well microtiter plates containing incubation medium (MBS supplemented with 10 mg/l streptomycin, 10,000 U/l penicillin G, 50 mg/l gentamicin, 2 mM sodium pyruvate, 0.5 mM theophylline) that had been sterilized by passage through a […]. Oocytes were incubated at 19° C. for 2 to 4 days after injection.
(§3) Oocytes were placed in a rectangular chamber (approximately […]) and perfused (2 ml/min) with frog Ringer (in mM) containing 115 NaCl, 2.5 KCl, 1.8 CaCl2, 10 HEPES (pH 7.2). […] Control responses were always measured before and after addition of the DCUKA. […] Data are expressed as the % inhibition of the agonist response obtained in the absence of the drug.

[5] = biological target: T3, NR1a/NR2A recombinant receptors (Homo sapiens, UniProt Q05586); assay: as above; type: cell-based; conditions: 100 μM NMDA, 50 μM DCUKA, increasing glycine up to 100 μM
T3 construct: expressed in transfected cells; host or cells: Xenopus laevis oocytes, nuclear cDNA injection
Method: as §1, §2, §3

T1 sequence (Q00960 27-1482, other chains not shown): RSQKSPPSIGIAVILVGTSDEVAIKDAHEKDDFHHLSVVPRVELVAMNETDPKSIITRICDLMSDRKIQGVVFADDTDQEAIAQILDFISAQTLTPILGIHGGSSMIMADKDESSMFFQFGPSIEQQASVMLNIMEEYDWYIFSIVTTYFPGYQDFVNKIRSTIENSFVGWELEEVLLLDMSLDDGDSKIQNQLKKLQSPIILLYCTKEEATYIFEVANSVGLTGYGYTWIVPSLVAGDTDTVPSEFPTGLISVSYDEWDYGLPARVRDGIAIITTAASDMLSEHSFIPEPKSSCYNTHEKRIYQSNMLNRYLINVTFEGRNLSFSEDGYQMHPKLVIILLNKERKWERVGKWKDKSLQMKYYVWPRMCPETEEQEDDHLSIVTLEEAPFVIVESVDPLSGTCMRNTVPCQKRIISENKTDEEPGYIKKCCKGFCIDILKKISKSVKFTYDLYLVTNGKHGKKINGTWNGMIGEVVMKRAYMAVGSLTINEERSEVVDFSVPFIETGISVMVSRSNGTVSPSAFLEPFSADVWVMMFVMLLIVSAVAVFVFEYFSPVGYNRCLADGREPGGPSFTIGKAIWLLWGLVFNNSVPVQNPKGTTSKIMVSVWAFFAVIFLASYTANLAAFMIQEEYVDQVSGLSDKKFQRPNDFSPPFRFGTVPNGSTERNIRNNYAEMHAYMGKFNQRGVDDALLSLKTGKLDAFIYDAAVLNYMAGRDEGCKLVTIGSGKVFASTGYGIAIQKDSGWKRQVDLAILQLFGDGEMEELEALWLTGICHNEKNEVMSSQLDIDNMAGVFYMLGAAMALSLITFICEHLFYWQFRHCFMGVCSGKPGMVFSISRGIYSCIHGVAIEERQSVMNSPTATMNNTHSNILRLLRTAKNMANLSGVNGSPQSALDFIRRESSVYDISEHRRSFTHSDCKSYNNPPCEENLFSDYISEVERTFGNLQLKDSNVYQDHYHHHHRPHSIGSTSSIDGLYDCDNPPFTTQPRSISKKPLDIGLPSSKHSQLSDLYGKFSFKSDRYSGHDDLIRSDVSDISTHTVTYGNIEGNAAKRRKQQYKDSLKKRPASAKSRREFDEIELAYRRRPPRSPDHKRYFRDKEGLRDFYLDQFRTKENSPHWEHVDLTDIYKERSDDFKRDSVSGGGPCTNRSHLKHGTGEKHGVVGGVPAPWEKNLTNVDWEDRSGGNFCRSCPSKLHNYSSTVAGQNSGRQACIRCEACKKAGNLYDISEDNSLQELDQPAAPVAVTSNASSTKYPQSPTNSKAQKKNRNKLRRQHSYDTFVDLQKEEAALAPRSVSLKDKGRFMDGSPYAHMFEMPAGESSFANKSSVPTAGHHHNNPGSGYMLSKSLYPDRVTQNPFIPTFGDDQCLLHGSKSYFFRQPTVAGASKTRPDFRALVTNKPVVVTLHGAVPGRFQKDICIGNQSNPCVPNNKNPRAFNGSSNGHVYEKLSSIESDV

Row | IC50 [2] [µM] | IC50 [3] [µM] | IC50 [4] [µM] | SMILES | open arm entries (anxiolytic effect) ([1]; about 90 minutes before testing) | total arm entries (locomotor activity) ([1]; compared to vehicle) | reversal by glycine of inhibition of NMDA-induced currents [5]
1 |  |  |  | COC(=O)c1cc(NC(=O)N(c2ccccc2)c2ccccc2)c2c(Cl)cc(Cl)cc2n1 [DCUK-OMe, (N,N-diphenyl)-4-ureido-5,7-dichloro-2-carboxy-quinoline methyl ester] | has anxyolitic activity | did not show any increase in total arm entries | 
2 | > 200 | > 200 | 12.8 | O=C(O)c1cc(NC(=O)N(c2ccccc2)c2ccccc2)c2c(Cl)cc(Cl)cc2n1 [DCUKA, (N,N-diphenyl)-4-ureido-5,7-dichloro-2-carboxy-quinoline] |  |  | could not be overcome by glycine, even at a 100 μM concentration
